Test results from ChEMBL document CHEMBL5126678, “A New Naphthopyran Derivative Combines c-Myb Inhibition, Microtubule-Targeting Effects, and Antiangiogenic Properties” (ACS Med Chem Lett, 2022).
Active and inactive are the calls of the source. The rule behind the calls is not given here.

Tests used:
[1] = target: Transcriptional activator Myb (Homo sapiens, UniProt P10242); experiment: Inhibition of c-Myb (unknown origin) expressed in HEK293T cells measured after 16 hrs by steady-glo luciferase reporter gene assay; assay type: cell-based
518A2 [2] = experiment: Cell cycle arrest in human […] cells assessed as increase in accumulation at G2/M phase at 25 nM measured after 6 to 24 hrs by propidium iodide staining based FACS analysis; assay type: functional; settings: time 6-24 hrs
518A2 [3] = experiment: Cytotoxicity against human 518A2 cells assessed as reduction in cell viability measured after 72 hrs by MTT assay; assay type: functional, cell-based; settings: 518A2, 72 h
[4] = Cytotoxicity against HDFa cells assessed as reduction in cell viability at 0.0005 to 100 uM measured after 72 hrs by MTT assay; assay type: toxicity, cell-based; settings: human, dose 0.0005-100 µM
KB-V1 [5] = experiment: Cytotoxicity against human multidrug-resistant KB-V1 cells assessed as reduction in cell viability measured after 72 hrs by MTT assay; assay type: functional, cell-based; settings: KB-V1, 72 h
HeLa = experiment: Cytotoxicity against human HeLa cells assessed as reduction in cell viability measured after 72 hrs by MTT assay; assay type: functional, cell-based
[6] = Effect on angiogenic activity in 24 hrs post-fertilized fil1/EGFP transgenic zebrafish embryo assessed as subintestinal vessel area at 100 nM measured after 48 hrs by fluorescence microscopy (reference value: 100%); assay type: toxicity, Danio rerio; settings: 0.1 µM
Sus scrofa = species on record: Sus scrofa; experiment: Inhibition of porcine brain tubulin polymerization at 5 uM measured at 10 mins interval for 100 mins by turbidimetric assay; assay type: tissue-based
[7] = Cytotoxicity against human EA.hy 926 cells assessed as reduction in cell viability measured after 72 hrs by MTT assay; assay type: toxicity, cell-based
Tubulin (Homo sapiens) [8] = target: T1, Tubulin (Homo sapiens) (UniProt P68371+Q9H4B7+P0DPH7+P68366+Q13509+Q71U36+P04350+Q3ZCM7+P07437+P68363+Q9BQE3+Q6PEY2+Q13885+Q9BVA1+Q9BUF5); experiment: Induction of microtubule fragmentation in human 518A2 cells assessed as appearance of area with transverse arcs at 25 nM measured after 24 hrs by immunofluorescence assay; assay type: cell-based
HCT-116 [9] = experiment: Cytotoxicity against p53-deficient human HCT-116 cells assessed as reduction in cell viability measured after 72 hrs by MTT assay; assay type: functional, cell-based; settings: HCT-116, 72 h
Tubulin (Homo sapiens) [10] = target: T1, Tubulin (Homo sapiens); experiment: Induction of microtubule fragmentation in human 518A2 cells assessed as appearance of area with dorsal stress fibre at 25 nM measured after 24 hrs by immunofluorescence assay; assay type: cell-based
[11] = target: Caspase-3/Caspase-7 (Homo sapiens) (UniProt P42574+P55210); experiment: Activation of caspase-3/7 activity in human 518A2 cells at 25 nM preincubated for 24 hrs followed by caspase-3/7 fluorogenic substrate addition and measured after 60 mins by fluorescence assay; assay type: cell-based; settings: filed as activator, time 25.0 hrs
MCF7 = experiment: Cytotoxicity against human MCF7 cells assessed as reduction in cell viability measured after 72 hrs by MTT assay; assay type: functional, cell-based; settings: MCF7, 72 h
[12] = Cytotoxicity against human U-87 cells assessed as reduction in cell viability measured after 72 hrs by MTT assay; assay type: functional, cell-based, U-87MG ATCC; settings: U-87 MG
HT-29 = experiment: Cytotoxicity against human HT-29 cells assessed as reduction in cell viability measured after 72 hrs by MTT assay; assay type: functional, cell-based; settings: HT-29, 72 h
Tubulin (Homo sapiens) [13] = target: T1, Tubulin (Homo sapiens); experiment: Induction of microtubule fragmentation in human 518A2 cells at 25 nM measured after 24 hrs by immunofluorescence assay; assay type: cell-based
HCT-116 [14] = experiment: Cytotoxicity against human HCT-116 cells assessed as reduction in cell viability measured after 72 hrs by MTT assay; assay type: functional, cell-based; settings: HCT-116, 72 h
KB-V1 [15] = experiment: Cytotoxicity against human multidrug-resistant KB-V1 cells assessed as reduction in cell viability measured after 72 hrs in presence of verapamil by MTT assay; assay type: functional, cell-based; settings: KB-V1, 72 h
518A2 [16] = experiment: Cell cycle arrest in human […] cells assessed as increase in accumulation at sub-G1 phase at 25 nM measured after 6 to 24 hrs by propidium iodide staining based FACS analysis; assay type: functional; settings: time 6-24 hrs
[17] = Hydrolytic stability of compound in DMSO-d6/D2O measured after 7 days by 1H-NMR analysis; assay type: physicochemical; settings: 168 h; time 7 day
[18] = Stability of compound in human 518A2 cell lysate measured after 72 hrs by RP-HPLC analysis; assay type: ADME, subcellular; settings: 518a2, 72 h
[19] = Effect on angiogenic activity in human EA.hy 926 cells assessed as reduction in vessel like 2D structure at 25 nM measured after 5 hrs by light microscopy; assay type: toxicity, cell-based; settings: ea.hy 926, 5 h, 0.025 µM
[20] = Stability of compound in human 518A2 cell lysate at 100 uM measured after 24 hrs by UV-absorption spectra analysis; assay type: ADME, subcellular; settings: 518a2, 24 h
[21] = Drug uptake in cytoplasm of human 518A2 cells at 25 uM measured within 15 mins by confocal microscopy; assay type: ADME, subcellular; settings: 518a2, 0.25 h

Chain of Caspase-3/Caspase-7 (Homo sapiens) (P42574 whole entry, looked up): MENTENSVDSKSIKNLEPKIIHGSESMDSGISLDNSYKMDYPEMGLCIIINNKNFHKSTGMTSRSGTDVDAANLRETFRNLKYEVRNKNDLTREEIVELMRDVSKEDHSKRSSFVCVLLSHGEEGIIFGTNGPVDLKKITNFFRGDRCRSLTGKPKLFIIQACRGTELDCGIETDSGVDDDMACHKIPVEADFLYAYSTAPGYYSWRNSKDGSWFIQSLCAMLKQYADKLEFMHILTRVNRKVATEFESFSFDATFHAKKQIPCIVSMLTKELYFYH
Chain of Caspase-3/Caspase-7 (Homo sapiens) (P55210 whole entry, looked up): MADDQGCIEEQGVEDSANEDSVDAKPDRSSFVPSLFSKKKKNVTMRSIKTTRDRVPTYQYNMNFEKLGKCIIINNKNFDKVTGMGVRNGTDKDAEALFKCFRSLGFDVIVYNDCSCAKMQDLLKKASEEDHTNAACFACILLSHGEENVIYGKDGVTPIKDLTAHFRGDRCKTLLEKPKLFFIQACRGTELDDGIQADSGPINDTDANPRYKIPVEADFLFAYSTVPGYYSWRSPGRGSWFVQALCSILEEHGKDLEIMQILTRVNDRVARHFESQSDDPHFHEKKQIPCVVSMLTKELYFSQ
Chain of Transcriptional activator Myb (P10242 whole entry): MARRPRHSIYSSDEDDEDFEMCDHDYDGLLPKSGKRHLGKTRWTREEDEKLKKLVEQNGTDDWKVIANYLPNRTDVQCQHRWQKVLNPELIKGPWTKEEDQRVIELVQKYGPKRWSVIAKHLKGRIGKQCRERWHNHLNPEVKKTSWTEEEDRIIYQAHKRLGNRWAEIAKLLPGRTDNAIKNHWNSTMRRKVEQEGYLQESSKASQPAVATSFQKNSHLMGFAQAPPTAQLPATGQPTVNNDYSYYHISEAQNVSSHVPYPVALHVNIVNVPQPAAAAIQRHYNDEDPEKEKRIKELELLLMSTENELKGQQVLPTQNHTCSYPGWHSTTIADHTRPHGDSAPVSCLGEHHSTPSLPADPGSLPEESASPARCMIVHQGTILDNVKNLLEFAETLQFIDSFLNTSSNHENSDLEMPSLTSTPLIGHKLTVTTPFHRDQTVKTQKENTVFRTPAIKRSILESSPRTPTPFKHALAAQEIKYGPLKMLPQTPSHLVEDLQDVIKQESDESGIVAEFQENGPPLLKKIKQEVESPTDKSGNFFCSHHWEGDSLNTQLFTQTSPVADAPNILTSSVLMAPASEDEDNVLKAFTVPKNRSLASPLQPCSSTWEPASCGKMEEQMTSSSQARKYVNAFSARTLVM

| IC50 [1] [nM] | SMILES | IC50 (518A2 [3]) [nM] | IC50 (KB-V1 [5]) [nM] | IC50 (HeLa) [nM] | IC50 at 72 h [7] [nM] | IC50 (HCT-116 [9]) [nM] | IC50 (MCF7) [nM] | IC50 [12] [nM] | IC50 (HT-29) [nM] | IC50 (HCT-116 [14]) [nM] | IC50 (KB-V1 [15]) [nM] | also measured |
| --- | --- | --- | --- | --- | --- | --- | --- | --- | --- | --- | --- | --- |
| 50 | CCOc1c(I)cc(C2C(C#N)=C(N)Oc3c2ccc2ccccc32)cc1OC (centres undefined) | – | – | – | – | – | – | – | – | – | – | – |
| 1000 | COc1cc(C2C(C#N)=C(N)Oc3c2ccc2ccccc32)ccc1OCc1ccccc1 (centres undefined) | – | – | – | – | – | – | – | – | – | – | – |
| 130 | COc1cc(C2C(C#N)=C(N)Oc3c2ccc2ccccc32)c(Br)c(OC)c1OC (centres undefined) | – | – | – | – | – | – | – | – | – | – | – |
| 14 | CCOc1c(OC)cc(C2C(C#N)=C(N)Oc3c2ccc2ccccc32)cc1OC (centres undefined) | 25 | 20.9 | 21.9 | 6.2 | 13.1 | 28.1 | 10.6 | 269 | 22.7 | 16.5 | Activity (518A2 [2]): Active; Activity [4]: Toxic; Activity [6]: 78.1%; inhibition (Sus scrofa): Active; Activity (Tubulin (Homo sapiens) [8]): Active; Activity (Tubulin (Homo sapiens) [10]): Active; Activity [11]: Active; Activity (Tubulin (Homo sapiens) [13]): Active; Activity (518A2 [16]): Active |
| 14 | C=CCOc1c(OC)cc(C2C(C#N)=C(N)Oc3c2ccc2ccccc32)cc1OC (centres undefined) | 3.6 | 18.7 | 22.2 | 15.7 | 15.9 | 43.3 | 5.7 | 395 | 193 | 15.9 | Activity (518A2 [2]): Active; Activity [4]: Toxic; Activity [6]: 31.3%; inhibition (Sus scrofa): Active; Activity (Tubulin (Homo sapiens) [8]): Active; Activity (Tubulin (Homo sapiens) [10]): Active; Activity [11]: Active; Activity (Tubulin (Homo sapiens) [13]): Active; Activity (518A2 [16]): Active |
| 60 | COc1cc(C2C(C#N)=C(N)Oc3c2ccc2ccccc32)cc(OC)c1OC(C)C (centres undefined) | 266 | 89 | 72 | 65.8 | 137 | 265 | 53.1 | 4310 | 274 | 105 | Activity (518A2 [2]): Active; Activity [4]: Toxic; Activity [6]: 80.9%; inhibition (Sus scrofa): Active; Activity [11]: Active; Activity (518A2 [16]): Active |
| 400 | COc1ccc(C2C(C#N)=C(N)Oc3c2ccc2ccccc32)cc1C (centres undefined) | – | – | – | – | – | – | – | – | – | – | – |
| 11 | C#CCOc1c(OC)cc(C2C(C#N)=C(N)Oc3c2ccc2ccccc32)cc1OC (centres undefined) | 20.6 | 60.6 | 24 | 17.1 | 19.9 | 2.6 | 5.2 | 36.9 | 75.2 | 10.6 | Activity (518A2 [2]): Active; Stability [18]: Stable; Activity [4]: Toxic; Activity [6]: 34.5%; inhibition (Sus scrofa): Active; Activity [19]: Toxic; Activity (Tubulin (Homo sapiens) [8]): Active; Activity (Tubulin (Homo sapiens) [10]): Active; Activity [11]: Active; Stability [20]: Stable; Drug uptake [21]: Active; Activity (Tubulin (Homo sapiens) [13]): Active; Stability [17]: Stable; Activity (518A2 [16]): Active |

Second part, the compound before the results:

| SMILES | IC50 [1] [nM] | IC50 (518A2 [3]) [nM] | IC50 (KB-V1 [5]) [nM] | IC50 (HeLa) [nM] | IC50 at 72 h [7] [nM] | IC50 (HCT-116 [9]) [nM] | IC50 (MCF7) [nM] | IC50 [12] [nM] | IC50 (HT-29) [nM] | IC50 (HCT-116 [14]) [nM] | IC50 (KB-V1 [15]) [nM] | also measured |
| --- | --- | --- | --- | --- | --- | --- | --- | --- | --- | --- | --- | --- |
| N#CC1=C(N)Oc2c(ccc3ccccc23)C1c1ccc(Cl)c(F)c1 (centres undefined) | 16 | – | – | – | – | – | – | – | – | – | – | – |
| CCCCCOc1c(OC)cc(C2C(C#N)=C(N)Oc3c2ccc2ccccc32)cc1OC (centres undefined) | 400 | – | – | – | – | – | – | – | – | – | – | – |
| COc1ccc(C2C(C#N)=C(N)Oc3c2ccc2ccccc32)cc1 (centres undefined) | 3700 | – | – | – | – | – | – | – | – | – | – | – |
| N#CC1=C(N)Oc2c(ccc3ccccc23)C1c1ccc(C#N)cc1 (centres undefined) | 390 | – | – | – | – | – | – | – | – | – | – | – |
| N#CC1=C(N)Oc2c(ccc3ccccc23)C1c1cccc([N+](=O)[O-])c1 (centres undefined) | 8.7 | 10.8 | 23.7 | 36.1 | 29.5 | 28.2 | 182 | 67.7 | 32.1 | 7.57 | 76.1 | Stability [17]: Stable |
| CSc1ccc(C2C(C#N)=C(N)Oc3c2ccc2ccccc32)cc1F (centres undefined) | 240 | – | – | – | – | – | – | – | – | – | – | – |
| COc1ccc(C2C(C#N)=C(N)Oc3c2ccc2ccccc32)cc1OC (centres undefined) | 40 | – | – | – | – | – | – | – | – | – | – | – |
